Assay results reported in patent publication US20230365558A1, “TETRAHYDROISOQUINOLINE DERIVATIVE AND USE THEREOF” (MEDSHINE DISCOVERY INC., priority 2020, published 2023).
Read-outs that look alike come from different tables or passages of the source.

Experiments:
PRMT5 enzyme = PRMT5 enzyme (Homo sapiens (Human), UniProt O14744); assay: PRMT5 enzyme inhibitory activity assay (LANCE Ultra TR-FRET); assay type: biochemical
Description: Experimental objective: To test the inhibitory effect of compounds on PRMT5 enzyme activity
Experimental materials: PRMT5 enzyme
The plate was incubated at 25° C. for 30 min, then added with substrate, and reacted at 25° C. for 90 min. After 90 min, the detection reagent was added to the 384-well plate using PerkinElmer LANCE Ultra TR-FRET standard method to combine with the enzyme-substrate reaction product. […] Raw data were used to calculate the inhibition rate of the test compounds using the following equation: […]
(§1) The inhibition rates were imported into Excel separately to calculate the inhibition rates of compounds at different concentrations, and then XLfit software was used to plot inhibition curves and calculate relevant parameters, including minimum inhibition rate, maximum inhibition rate and IC50.

[1] = system: Z-138 non-Hodgkin's lymphoma cells; assay: In vitro anti-proliferation assay of Z-138 cells (CellTiter-Glo, 6 days); assay type: cell-based, human; conditions: read-out: IC50 (nM), in vitro anti-proliferative activity on Z-138 tumor cells
Description: The plate was incubated at 37° C., CO2 and 100% relative humidity for 6 days. Samples were processed using Promega CellTiter-Glo Luminescent Cell Viability Assay Kit (Promega-G7571) standard method, and the luminescent signal was detected on a TECAN Spark®10M plate reader. Raw data were used to calculate the inhibition rate of the test compounds using the following equation: […]
as §1

[2] = Pharmacokinetic evaluation in CD-1 mice; conditions: for Clearance rate CL / Concentration integral AUC / Half-life T1/2 / Bioavailability F: CD-1 mice; for AUC / clearance / half-life / bioavailability: male, CD-1, mouse, in vivo
Description: Experimental objective: To study the pharmacokinetic parameters of the compounds in CD-1 mice
Animal experimental design: Male CD-1 mice (28.08 to 29.01 g, 6 to 7 weeks old), purchased from Shanghai Family Planning Research Institute, n=2/group, 4 mice in total; blood collection time points (h): 0.083 (intravenous injection only), 0.25 (intragastric administration only), 0.5, 1, 2, 4, 8, 10 and 24; compound dose by tail vein injection: 1 mg/kg; single dose by intragastric administration: 5 mg/kg; intravenous and intragastric administration vehicles: 20% N,N-dimethylacetamide aqueous solution, 20% hydroxypropyl-β-cyclodextrin aqueous solution, 5% DMSO/50% PEG400/45% water for injection or 10% Solutol/30% PEG400/60% water for injection. All animals had free access to water during the experiment, fasted overnight before administration, and resumed food supply 4 hours after administration. The entire animal experiment complied with the Institutional Animal Care and Use Committee (IACUC) animal welfare.
Sample collection and storage: After administration, approximately 0.03 mL of blood was collected from the saphenous vein of the mouse at each time point into a pre-frozen commercial EDTA-K2 tube, and placed on wet ice until centrifugation. Blood samples were centrifuged at 4° C., 3,200 g for 10 min. Plasma was collected separately, transferred to a pre-labeled 96-well plate, fast frozen on dry ice, and stored at −70±10° C. until LC-MS/MS analysis.
Pre-treatment of plasma samples: 3 μL of unknown, standard curve, QC, diluted QC and single and double blank samples were taken and placed in 1.5 mL tubes, and 60 μL of internal standard solution (internal standard: Labetalol 100 ng/mL acetonitrile solution, double blank with the same volume of pure acetonitrile) was added. The samples were vortexed for at least 15 seconds, and centrifuged at 4° C., 12,000 g for 15 min. 50 μL of the supernatant was taken and placed on a clean 96-well plate, and 200 μL of 70% acetonitrile was added. The plate was vortex at 800 rpm for 10 min, and centrifuged at 4° C., 3,220 g for 5 min. 2.0 μL of the supernatant was taken for LC-MS/MS analysis. 10-fold sample dilution procedure: 2 μL of the sample was added to 18 μL of blank matrix; 2-fold sample dilution procedure: 2 μL of the sample was added to 2 μL of blank matrix. Plasma was processed in the same manner as undiluted samples. The linear range was 4.00 to 6000 nM. Plasma concentrations would be analyzed with Triple Quad 6500 Plus, and pharmacokinetic parameters would be calculated with Phoenix WinNonlin 6.3.

[3] = system: MDA-MB-468 human breast cancer cells; assay: Anti-proliferative activity on MDA-MB-468 cells (CellTiter-Glo, 7 days); assay type: cell-based; conditions: read-out: IC50 (nM), in vitro anti-proliferative activity on MDA-MB-468 tumor cells
Description: CellTiter-Glo (chemiluminescent cell viability detection reagent, purchased from Promega).
MDA-MB-468 cells were planted in a white 384-well plate with 40 μL of cell suspension per well, which contained 1000 MDA-MB-468 cells. The cell plate was cultured in a CO2 incubator overnight. […] 78 μL of culture medium was added to a middle plate, and then 2 μL of gradient diluted compound per well was transferred to the middle plate according to the corresponding position. After being thoroughly mixed, 10 μL per well was transferred to the cell plate. […] The cell plate was cultured in a CO2 incubator for 7 days. Another cell plate was prepared, and the signal value was read on the day of administration as the maximum value (Max value in the equation below) to participate in data analysis. 10 μL of chemiluminescent cell viability detection reagent per well was added to the cell plate, and the plate was incubated at room temperature for 10 min to stabilize the luminescent signal. A multi-label analyzer was used for reading. After the incubation of the cell plate with the compound was completed, 10 μL of chemiluminescent cell viability detection reagent per well was added to the cell plate, and the plate was incubated at room temperature for 10 min to stabilize the luminescent signal. A multi-label analyzer was used for reading.

[4] = system: human mantle cell lymphoma Z-138 cells; conditions: Z-138 xenograft; for T/C (%) (Day 21) / TGI (%) (Day 21): 80 mg/kg PO BID × 21, Day 21; for RTV (Day 21) / Tumor volume (Day 21): 80 mg/kg PO BID × 21, Day 21, Mean ± SEM; for Tumor volume (Day 21) / Tumor volume (Day 0): n = 6; for Tumor volume (Day 0): Day 0 (at grouping), Mean ± SEM
[5] = system: human breast cancer MDA-MB-468 cells; assay: Subcutaneous xenograft tumor BALB/c mouse model of human breast cancer MDA-MB-468 cells; assay type: in vivo; conditions: MDA-MB-468 xenograft
Description: Experimental materials: 6 to 8 weeks old Balb/c female mice
Routine digestion with trypsin-EDTA was performed twice a week for passaging.
Group administration was started when the average tumor volume reached 130 mm^3.

[6] = Hygroscopicity by dynamic vapor sorption (DVS); assay type: physicochemical; conditions: 25° C./80% RH
Description: (3) Dynamic Vapor Sorption (DVS) Method
Detailed DVS instrument information and parameters are shown in Table 5, and the classification of hygroscopicity evaluation is shown in Table 6:
Instrument: SMS DVS intrinsic Dynamic Vapor Sorption. The crystal form A of compound 46a (about 10 mg) was taken and placed in a DVS sample tray for testing.

[7] = injection administration (1 mg/kg)
[8] = 100 mg/kg PO BID × 4 W, Day 28, Mean ± SEM

PRMT5 enzyme, sequence (O14744 whole entry): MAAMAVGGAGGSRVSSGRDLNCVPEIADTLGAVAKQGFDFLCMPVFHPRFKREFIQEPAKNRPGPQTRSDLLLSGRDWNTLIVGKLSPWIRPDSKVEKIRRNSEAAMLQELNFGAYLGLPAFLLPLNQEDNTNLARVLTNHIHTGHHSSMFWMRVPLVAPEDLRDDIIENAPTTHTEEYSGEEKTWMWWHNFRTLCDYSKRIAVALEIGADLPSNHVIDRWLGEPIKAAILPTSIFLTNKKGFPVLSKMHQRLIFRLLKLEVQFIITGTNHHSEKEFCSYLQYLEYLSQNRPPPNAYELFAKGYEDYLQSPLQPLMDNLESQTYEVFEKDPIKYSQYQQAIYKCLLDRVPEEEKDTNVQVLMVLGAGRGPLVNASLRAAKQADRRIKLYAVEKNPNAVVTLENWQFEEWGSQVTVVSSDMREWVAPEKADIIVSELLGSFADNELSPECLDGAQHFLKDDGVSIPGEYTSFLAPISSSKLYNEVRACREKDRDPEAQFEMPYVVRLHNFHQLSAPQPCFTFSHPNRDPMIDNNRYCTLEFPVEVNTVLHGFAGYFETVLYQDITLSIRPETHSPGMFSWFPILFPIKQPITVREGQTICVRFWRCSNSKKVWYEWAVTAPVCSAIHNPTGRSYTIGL
PRMT5 enzyme, sequence (Q9BQA1 whole entry partner): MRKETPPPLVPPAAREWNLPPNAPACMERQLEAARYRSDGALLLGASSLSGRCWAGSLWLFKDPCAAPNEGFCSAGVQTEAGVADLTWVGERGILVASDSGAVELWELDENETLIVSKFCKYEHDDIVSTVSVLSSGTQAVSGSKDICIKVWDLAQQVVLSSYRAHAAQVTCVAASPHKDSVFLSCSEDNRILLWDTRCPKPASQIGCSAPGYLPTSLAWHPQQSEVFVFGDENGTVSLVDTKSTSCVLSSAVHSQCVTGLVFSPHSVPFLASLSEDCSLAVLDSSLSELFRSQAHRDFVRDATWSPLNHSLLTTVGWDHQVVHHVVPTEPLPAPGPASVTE

Row | Compound | IC50 (PRMT5 enzyme) | IC50 [1] | Clearance rate CL [2, 7] | Concentration integral AUC [2, 7] | Half-life T1/2 [2, 7] | Bioavailability F ([2]; oral administration (5 mg/kg)) | Concentration integral AUC ([2]; oral administration (5 mg/kg)) | other results
1 | O=C(NC[C@H](O)CN1CCc2ccccc2C1)c1ccc2c(c1)NC(=O)C1(CCCC1)O2 [Compound 2] | 128 nM | 24 nM | 39.7 mL/min/kg | 0.967 µM·h | 33.6 min | 8.6% | 0.417 µM·h | 
2 | O=C(NC[C@H](O)CN1CCc2ccccc2C1)c1ccc2c(c1)NC(=O)C1(CCCCC1)O2 [Compound 3] | 18 nM | 78 nM | 78.1 mL/min/kg | 0.474 µM·h | 9.6 min | 7.2% | 0.171 µM·h | 
3 | O=C(NC[C@H](O)CN1CCc2ccccc2C1)c1cnc2c(c1)NC(=O)C1(CC1)O2 [Compound 8] | 15 nM |  |  |  |  |  |  | IC50 ([3]; Homo sapiens, 168 h): 12 nM; IC50 ([1]; Homo sapiens, Z-138, 144 h): 10 nM; AUC ([2]; iv, 1 mg/kg): 0.875 µM·h; clearance ([2]; iv, 1 mg/kg): 53.3 mL/min/kg; half-life ([2]; iv, 1 mg/kg): 54.6 min; AUC ([2]; po, 5 mg/kg): 1.03 µM·h; bioavailability ([2]; po, 5 mg/kg): 24.5%
4 | CC(C)N1CC2(C1)Oc1ccc(C(=O)NC[C@H](O)CN3CCc4ccccc4C3)cc1NC2=O [Compound 9] | 36 nM |  |  |  |  |  |  | IC50 ([1]; Homo sapiens, Z-138, 144 h): 100 nM; AUC ([2]; 1 mg/kg): 0.336 µM·h; clearance ([2]; 1 mg/kg): 107 mL/min/kg; half-life ([2]; 1 mg/kg): 129 min; AUC ([2]; po, 5 mg/kg): 0.168 µM·h; bioavailability ([2]; po, 5 mg/kg): 10%
5 | O=C(NC[C@H](O)CN1CCc2ccccc2C1)c1cnc2c(c1)NC(=O)C1(CC(F)(F)C1)O2 [Compound 29] | 16 nM | 6 nM | 37.9 mL/min/kg | 0.981 µM·h | 35.4 min | 8.99% | 0.441 µM·h | 
6 | O=C(NC[C@H](O)CN1CCc2ccccc2C1)c1ccc2c(c1)NC(=O)[C@@]1(CCOC1)O2 [Compound 35] | 11 nM | 22 nM |  |  |  |  |  | 
7 | O=C(NC[C@H](O)CN1CCc2ccccc2C1)c1ccc2c(c1)NC(=O)[C@]1(CCOC1)O2 [Compound 36] | 7 nM | 7 nM | 66.3 mL/min/kg | 0.576 µM·h | 13.2 min | 37.9% | 1.092 µM·h | 
8 | O=C(NC[C@H](O)CN1CCc2ccccc2C1)c1ccc2c(c1)NC(=O)C1(CS(=O)(=O)C1)O2 [Compound 37] | 8 nM | 8 nM |  |  |  |  |  | 
9 | O=C(NC[C@H](O)CN1CCc2ccccc2C1)c1cnc2c(c1)NC(=O)C1(CC1)C2 [Compound 39] | 34 nM | 12 nM | 33.6 mL/min/kg | 1.214 µM·h | 33 min | 20.0% | 1.208 µM·h | IC50 [3]: 12 nM; T/C (%) (Day 21) [4]: 12.1%; TGI (%) (Day 21) [4]: 94.8%; RTV (Day 21) [4]: 1.66 + 0.42; Tumor volume (Day 21) [4]: 179 + 42 mm^3; Tumor volume (Day 0) [4]: 108 ± 7 mm^3
10 | C[C@H](NC(=O)c1cnc2c(c1)NC(=O)C1(CC1)O2)[C@H](O)CN1CCc2ccccc2C1 [Compound 46a] | 58 nM |  |  |  |  |  |  | IC50 ([3]; Homo sapiens, 168 h): 5 nM; T/C (%) ([5]; 100 mg/kg PO BID × 4 W, Day 28): 33.29%; TGI (%) ([5]; 100 mg/kg PO BID × 4 W, Day 28): 107.01%; RTV (Day 28) [5, 8]: 0.88 ± 0.06; Tumor volume (Day 28) [5, 8]: 115 ± 13.8 mm^3; Tumor volume (Day 0) ([5]; Day 0 (at grouping), Mean ± SEM): 130 ± 10.5 mm^3; T/C (%) (Day 21) [4]: 1.7%; TGI (%) (Day 21) [4]: 105.8%; RTV (Day 21) [4]: 0.24 + 0.11; Tumor volume (Day 21) [4]: 27 + 13 mm^3; Tumor volume (Day 0) [4]: 107 ± 8 mm^3; IC50 ([1]; Homo sapiens, Z-138, 144 h): 11 nM
11 | COc1cc2c(cc1C(=O)NC[C@H](O)CN1CCc3ccccc3C1)NC(=O)C1(CC1)O2 [Compound 47] | 42 nM | 66.8 nM |  |  |  |  |  | 
12 | O=C(NC[C@H](O)CN1CCc2ccccc2C1)c1ccc2c(c1)NC(=O)[C@H]1C[C@@H]21 [Compound 49b] | 26.2 nM | 13.1 nM |  |  |  |  |  | IC50 [3]: 4.2 nM
13 | C[C@H](NC(=O)c1cnc2c(c1)NC(=O)C1(CC1)O2)[C@H](O)CN1CCc2ccccc2C1 [crystal form A of compound 46a] |  |  |  |  |  |  |  | Hygroscopicity classification [6]: slightly hygroscopic; moisture absorption weight gain ΔW % [6]: 0.8%
